15 compounds from patent US4816586A, “Delta opioid receptor antagonists” (Regents of the University of Minnesota, priority 1987, dated 1989) can be followed below.

Format in all cases: cell-based
In test [1] the target is T1, delta opioid receptor (Mus musculus, UniProt P32300). Put plainly: Comparison as delta antagonist with ICI 174864 and M8008.
Test [2] deals with T1, delta opioid receptor. The test can be described thus: Antagonism of DADLE (delta agonist) in the mouse vas deferens (MVD) preparation. The following applies: for Kb: compound 100 or 200 nM, 15 min incubation, read-out: Ke, DADLE; for relative delta antagonist potency: compared within the series. Set-up: Both vasa deferentia were dissected out of mice; from tissue; host or cells: mouse vas deferens; key to Ke, DADLE: No agonist antagonism observed. As for the experimental part:
(§1) The organ bath was maintained at 37° C.
The results of these bioassays are summarized on Table IV, below.

The target of a further test is mu opioid receptor (Cavia porcellus, UniProt A0ACM8Q262). Put plainly: Antagonism of morphine (mu agonist) in the guinea pig ileum (GPI) preparation. The following applies: for Kb: compound 100 or 200 nM, 15 min incubation, read-out: Ke. Set-up: key to Ke, M: No agonist antagonism observed. As to the method:
(§2) 1. Guinea Pig Ileal Longitudinal Muscle (GPI). Ilea from guinea pigs were taken approximately 10 cm from the ileocaecal junction, and a strip of longitudinal muscle with the myenteric plexus attached was prepared by method of Rang et al., Brit. J. Pharmacol., 22, 356 (1964), the disclosure of which is incorporated by reference herein. A 1 cm portion of this strip was then mounted between two platinum electrodes placed in a 10 ml organ bath and connected to an isometric transducer; contractions were recorded on a polygraph. Contractions of the ileal strip were initiated by supramaximal rectangular pulses in all preparations (80 V of 0.5 ms duration at a frequency of 0.1 Hz). Krebs bicarbonate solution containing 1.25 μM chlorpheniramine maleate was the bathing solution and was continuously bubbled with 95% O2 and 5% CO2. The organ bath was maintained at 36°-37° C. The longitudinal muscle strip was allowed to equilibrate with continuous stimulation for a minimum of 90 min.

Another test addresses T2, kappa opioid receptor (Cavia porcellus, UniProt P41144).
T2 construct: a strip of longitudinal muscle with the myenteric plexus attached was prepared; from tissue; host or cells: guinea pig ileum longitudinal muscle with myenteric plexus
Put plainly: Antagonism of ethylketazocine (kappa agonist) in the guinea pig ileum (GPI) preparation. The following applies: for Kb: compound 100 or 200 nM, 15 min incubation, read-out: Ke, EK. Set-up: key to Ke, EK: No agonist antagonism observed. As to the method:
as §2

In test [3] the test system is mouse vas deferens (MVD) and guinea pig ileum (GPI) preparations. Put plainly: Agonist activity in the MVD and GPI preparations. As for the experimental part: as §2, §1
Where [4] appears, read: compound 7 tested at 5 nM or less.

Molecules are shown by their SMILES. Some results are limits rather than exact numbers.

T1 sequence (P32300 whole entry): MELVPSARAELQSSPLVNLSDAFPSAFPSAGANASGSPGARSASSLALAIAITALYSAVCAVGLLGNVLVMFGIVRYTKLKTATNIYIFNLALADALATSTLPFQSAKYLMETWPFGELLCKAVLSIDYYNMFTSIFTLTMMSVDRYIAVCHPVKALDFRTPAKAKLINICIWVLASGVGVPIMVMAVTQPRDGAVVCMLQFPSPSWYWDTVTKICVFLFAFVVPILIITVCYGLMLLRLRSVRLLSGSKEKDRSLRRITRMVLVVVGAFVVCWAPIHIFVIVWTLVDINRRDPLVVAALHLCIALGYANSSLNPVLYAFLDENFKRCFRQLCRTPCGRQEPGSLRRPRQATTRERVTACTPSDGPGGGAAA
Chain of mu opioid receptor (A0ACM8Q262 1-400): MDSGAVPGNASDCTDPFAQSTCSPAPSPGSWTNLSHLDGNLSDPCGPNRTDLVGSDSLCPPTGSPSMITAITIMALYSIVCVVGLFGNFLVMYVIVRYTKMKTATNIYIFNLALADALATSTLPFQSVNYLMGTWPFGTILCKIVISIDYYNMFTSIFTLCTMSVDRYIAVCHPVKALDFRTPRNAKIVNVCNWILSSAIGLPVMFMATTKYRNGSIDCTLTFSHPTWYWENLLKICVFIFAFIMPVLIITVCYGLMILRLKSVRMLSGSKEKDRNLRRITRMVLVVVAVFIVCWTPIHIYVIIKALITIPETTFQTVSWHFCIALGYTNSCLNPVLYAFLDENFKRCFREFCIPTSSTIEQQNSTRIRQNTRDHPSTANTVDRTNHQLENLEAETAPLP
T2 sequence (P41144 whole entry): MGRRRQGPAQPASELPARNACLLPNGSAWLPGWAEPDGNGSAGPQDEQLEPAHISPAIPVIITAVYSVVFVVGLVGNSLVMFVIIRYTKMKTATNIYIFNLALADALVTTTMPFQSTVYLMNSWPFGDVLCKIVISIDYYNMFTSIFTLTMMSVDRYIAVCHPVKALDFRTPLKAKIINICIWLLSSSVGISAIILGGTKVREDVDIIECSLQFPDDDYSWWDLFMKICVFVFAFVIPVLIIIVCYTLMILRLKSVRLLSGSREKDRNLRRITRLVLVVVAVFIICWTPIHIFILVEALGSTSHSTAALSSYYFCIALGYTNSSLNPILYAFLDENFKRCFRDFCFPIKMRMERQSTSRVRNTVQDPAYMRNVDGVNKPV

As to `Oc1ccc2c3c1O[C@H]1c4[nH]c5ccccc5c4C[C@@]4(O)[C@@H](C2)N(CC2CC2)CC[C@]314` [Compound 1, 17-Cyclopropylmethyl-6,7-dehydro-4,5α-epoxy-3,14-dihydroxy-6,7,2',3'-indolomorphinan], the “potency compared with ICI 174864” value at delta opioid receptor [1] is given as “considerably more potent than the peptide delta antagonist, ICI 174864”. At delta opioid receptor [1] (in one assay), the “potency relative to the peptide delta antagonist ICI 174864” value is recorded as “at least 30 times”. In addition, on delta opioid receptor [2], the “antagonism of the effect of the delta agonist DADLE / delta antagonist activity” value is “highly active delta antagonist” and the “relative delta antagonist potency” value is reported as “an order of magnitude more potent than its substituted congeners”. Further, the Kb at delta opioid receptor [2] (agonist DADLE, MVD) was 0.00022 µM.

For the compound `Cn1c2c(c3ccccc31)C[C@@]1(O)[C@H]3Cc4ccc(O)c5c4[C@@]1(CCN3CC1CC1)[C@H]2O5` [Compound 2], the Kb was determined as 0.0125 µM on mu opioid receptor; 0.0222 µM on kappa opioid receptor; 0.0015 µM on delta opioid receptor [2] (agonist DADLE, MVD). Further, on delta opioid receptor [2], the “relative delta antagonist potency” value is “reduction of antagonist potency”.

Regarding `Oc1ccc2c3c1O[C@H]1c4[nH]c5ccc(F)cc5c4C[C@@]4(O)[C@@H](C2)N(CC2CC2)CC[C@]314` [Compound 3], the Kb turned out to be 0.0617 µM at mu opioid receptor; 0.0462 µM at kappa opioid receptor; 0.002 µM at delta opioid receptor [2] (agonist DADLE, MVD).

As to `COc1ccc2[nH]c3c(c2c1)C[C@@]1(O)[C@H]2Cc4ccc(O)c5c4[C@@]1(CCN2CC1CC1)[C@H]3O5` [Compound 4], the Kb at kappa opioid receptor is 0.0126 µM; on delta opioid receptor [2] (agonist DADLE, MVD), 0.0057 µM.

Regarding `Cc1ccc2[nH]c3c(c2c1)C[C@@]1(O)[C@H]2Cc4ccc(O)c5c4[C@@]1(CCN2CC1CC1)[C@H]3O5` [Compound 5], the Kb on mu opioid receptor is over 0.16 µM; on kappa opioid receptor it was over 0.25 µM; at delta opioid receptor [2] (agonist DADLE, MVD) it was 0.0042 µM.

In the case of `O=[N+]([O-])c1ccc2[nH]c3c(c2c1)C[C@@]1(O)[C@H]2Cc4ccc(O)c5c4[C@@]1(CCN2CC1CC1)[C@H]3O5` [Compound 6], the Kb on mu opioid receptor was 0.092 µM; at kappa opioid receptor it was at least 0.2 µM; on delta opioid receptor [2] (agonist DADLE, MVD), 0.168 µM.

In the case of `CN1CC[C@]23c4c5ccc(O)c4O[C@H]2c2[nH]c4ccccc4c2C[C@@]3(O)[C@H]1C5` [Compound 7], the “Ke, M” value at mu opioid receptor (setting [4]) is recorded as “e”. For the same compound, at kappa opioid receptor (setting [4]), the “Ke, EK” value was “e”. Moreover, in test [3], the “agonist activity” value is recorded as “partial agonist activity”. Besides, in test [3] (compared with the N-cyclopropyl analogues), the “relative agonist potency” value is “substantially more potent as an agonist than the N-cyclopropyl analogues”. In addition, the “Ke, DADLE” value at delta opioid receptor [2] (agonist DADLE, MVD, compound 7 tested at 5 nM or less) is recorded as “e”.

Take `Oc1ccc2c3c1O[C@H]1c4oc5ccccc5c4C[C@@]4(O)[C@@H](C2)N(CC2CC2)CC[C@]314` [Compound 8, 6,7,2',3'-Benzofurano-17-cyclopropylmethyl-6,7-dehydro-3,14-dihydroxy-4,5α-epoxymorphinan]: the Kb came to 0.0308 µM at mu opioid receptor; 0.0508 µM on kappa opioid receptor; 0.0018 µM at delta opioid receptor [2] (agonist DADLE, MVD). For the same compound, at delta opioid receptor [2], the “antagonism of the effect of the delta agonist DADLE / delta antagonist activity” value is listed as “retains substantial delta antagonist activity”. At delta opioid receptor [2] (compared with compound 1), the “relative delta selectivity” value was “less selective than 1”. For the same compound, at delta opioid receptor [2], the “relative delta antagonist potency” value is “less potent”.

For the compound `Oc1ccc2[nH]c3c(c2c1)C[C@@]1(O)[C@H]2Cc4ccc(O)c5c4[C@@]1(CCN2CC1CC1)[C@H]3O5` [Compound 9], the Kb at kappa opioid receptor was 0.0685 µM.

On to `Oc1ccc2c3c1O[C@H]1c4[nH]c5cccc(F)c5c4C[C@@]4(O)[C@@H](C2)N(CC2CC2)CC[C@]314` [Compound 10], for which the Kb at mu opioid receptor was over 0.125 µM; at kappa opioid receptor, over 0.17 µM; on delta opioid receptor [2] (agonist DADLE, MVD), 0.0055 µM.

`Oc1ccc2c3c1O[C@H]1c4[nH]c5c(F)cccc5c4C[C@@]4(O)[C@@H](C2)N(CC2CC2)CC[C@]314` [Compound 11]: the Kb was 0.0053 µM at mu opioid receptor; over 0.33 µM at kappa opioid receptor; 0.00035 µM at delta opioid receptor [2] (agonist DADLE, MVD).

With `Cc1cccc2c3c([nH]c12)[C@@H]1Oc2c(O)ccc4c2[C@@]12CCN(CC1CC1)[C@H](C4)[C@]2(O)C3` [Compound 13], the Kb on mu opioid receptor was 0.0191 µM; at kappa opioid receptor, over 0.33 µM; at delta opioid receptor [2] (agonist DADLE, MVD) it was 0.0015 µM.

For the compound `COc1cccc2c3c([nH]c12)[C@@H]1Oc2c(O)ccc4c2[C@@]12CCN(CC1CC1)[C@H](C4)[C@]2(O)C3` [Compound 14], the Kb on mu opioid receptor was found to be 0.035 µM; at delta opioid receptor [2] (agonist DADLE, MVD) it was 0.0066 µM.

`Oc1ccc2c3c1O[C@H]1c4nc5ccccc5nc4C[C@@]4(O)[C@@H](C2)N(CC2CC2)CC[C@]314` [Compound 16, 6,7,2',3'-benzopyrazino-17-cyclopropylmethyl-6,7-dehydro-3,14-dihydroxy-4,5α-epoxymorphinan]: the Kb was determined as 0.0134 µM on kappa opioid receptor and 0.0014 µM at delta opioid receptor [2] (agonist DADLE, MVD). Moreover, the “relative delta antagonist potency” value on delta opioid receptor [2] is reported as “A similar relationship was observed”.

For `Oc1ccc2c3c1O[C@H]1c4nc5ccccc5cc4C[C@@]4(O)[C@@H](C2)N(CC2CC2)CC[C@]314` [Compound 17, 17-cyclopropylmethyl-6,7-dehydro-4,5α-epoxy-3,14-dihydroxy-6,7,2',3'-quinolinomorphinan], the Kb at kappa opioid receptor came out at 0.0163 µM; on delta opioid receptor [2] (agonist DADLE, MVD), 0.0027 µM. Besides, the “relative delta antagonist potency” value on delta opioid receptor [2] is “A similar relationship was observed”.
